Measurements published in patent US8569336B2, “Compounds for the treatment of inflammatory disorders” (priority 2008, dated 2013).
Where two headings read alike, the source gives them in different places.

Experiments:
[1] = target: T1, purified catalytic domain of recombinant human TACE (rhTACEc) (Homo sapiens, UniProt P78536, N452Q/S266A); experiment: TACE kinetic assay: cleavage of internally quenched peptide substrate TNF-FRET 2 (Ki); type: biochemical; conditions: TNF-FRET 2 substrate
T1 construct: 6xHis (C); made in house; host or cells: baculovirus/Hi5 insect cells

[2] = tested on: TNF-α production from human whole blood; experiment: Inhibition of TNF-α production from human whole blood (hWBA), LPS stimulated, ELISA; type: cell-based; conditions: Homo sapiens, TNF-α by ELISA, read-out: hWBA (IC50)
[3] = Area under the curve determinations of plasma levels in rats (rrAUC), oral 10 mg/kg; type: in vivo; conditions: for AUC: rat, read-out: RR AUC (rapid rat AUC, rrAUC); for RR AUC (rapid rat AUC, rrAUC): blood collected 0.5-6 h post-dosing
[4] = LPS-stimulated human whole blood
[5] = 3.5 h, human whole blood diluted 1:1, LPS stimulated, 3.5 h
[6] = human whole blood diluted 1:1, LPS stimulated

T1 sequence (P78536 215-477 S266A/N452Q): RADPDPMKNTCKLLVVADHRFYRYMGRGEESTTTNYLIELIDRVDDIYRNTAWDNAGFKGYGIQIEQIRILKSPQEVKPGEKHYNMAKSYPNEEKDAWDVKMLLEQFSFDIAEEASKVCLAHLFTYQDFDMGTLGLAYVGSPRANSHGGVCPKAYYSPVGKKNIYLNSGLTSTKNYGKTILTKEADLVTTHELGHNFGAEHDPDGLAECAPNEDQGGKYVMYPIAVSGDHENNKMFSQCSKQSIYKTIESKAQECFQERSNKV

Row | Ki ([1]; read-out: Ki) [nM] | IC50 [2, 4] [nM] | AUC ([3]; plasma 0.5-6 h) [µM·h] | SMILES | further results
1 | 0.49 | 100 | 1.07 | COc1ccc2c(c1F)C(=O)N(C[C@@]1(c3cc4nc(C5(C)NC(=O)NC5=O)ccc4o3)NC(=O)NC1=O)C2 (mixture of isomers) [Compound 1901] | –
2 | 0.63 | 156 | 1.04 | COc1ccc2c(c1F)C(=O)N(C[C@@]1(c3cc4cc([C@@]5(C)NC(=O)NC5=O)c(F)cc4o3)NC(=O)NC1=O)C2 (single isomer, unassigned) [Compound 1326] | –
3 | 0.47 | 161 | 2.97 | COc1ccc2c(c1F)C(=O)N(C[C@@]1(c3cc4cc([C@]5(C)NC(=O)NC5=O)c(F)cc4o3)NC(=O)NC1=O)C2 (single isomer, unassigned) [Compound 1327] | –
4 | 0.64 | 241 | 19.1 | COc1ccc2c(c1F)C(=O)N(C[C@@]1(c3cc4cc(C)ncc4o3)NC(=O)NC1=O)C2 [Compound 305] | –
5 | 0.4 | 309 | 0.011 | CCNC(=O)N1CCc2oc([C@]3(CN4Cc5ccc(OC)cc5C4=O)NC(=O)NC3=O)cc2C1 [Compound 320] | –
6 | 0.695 | 163 | 1.1 | COc1ccc2c(c1)C(=O)N(C[C@@]1(c3cc4cc(C5(C)NC(=O)NC5=O)cnc4o3)NC(=O)NC1=O)C2 (stereo partly drawn) [Compound 500] | –
7 | 0.758 | 239 | 3.66 | COc1ccc2c(c1F)C(=O)N(C[C@@]1(c3cc4cc(C5(C)NC(=O)NC5=O)cnc4o3)NC(=O)NC1=O)C2 (stereo partly drawn) [Compound 504] | –
8 | 0.52 | 290 | 0.024 | CCN1CCN(c2ccc3oc([C@]4(CN5Cc6ccc(OCC7CC7)c(F)c6C5=O)NC(=O)NC4=O)cc3n2)CC1 [Compound 900] | –
9 | 0.557 | 193 | 1 | CCOc1ccc2c(c1F)C(=O)N(C[C@@]1(c3cc4nc(N5CCN(CC)CC5)ccc4o3)NC(=O)NC1=O)C2 [Compound 903] | –
10 | 0.56 | – | – | COc1ccc2c(c1)C(=O)N(C[C@@]1(c3cc4cc(-c5cn[nH]c5)c(F)cc4o3)NC(=O)NC1=O)C2 [Compound 1186] | IC50 [2, 5]: 550 nM; AUC ([3]; plasma 0.5-6 h post-dosing): 0.285 µM·h
11 | 0.23 | – | – | COc1ccc2c(c1F)C(=O)N(C[C@@]1(c3cc4cc(-c5cn[nH]c5)c(F)cc4o3)NC(=O)NC1=O)C2 [Compound 1187] | IC50 [2, 5]: 286 nM; AUC ([3]; plasma 0.5-6 h post-dosing): 1.07 µM·h
12 | 0.51 | – | – | COc1ccc2c(c1)C(=O)N(C[C@@]1(c3cc4cc(-c5ccc(N)nc5)c(F)cc4o3)NC(=O)NC1=O)C2 [Compound 1188] | IC50 [2, 5]: 720 nM; AUC ([3]; plasma 0.5-6 h post-dosing): 0.355 µM·h
13 | 0.59 | – | – | COc1ccc2c(c1)C(=O)N(C[C@@]1(c3cc4cc(C(=O)NCCN(C)C)c(F)cc4o3)NC(=O)NC1=O)C2 [Compound 1273] | IC50 [2, 5]: 181 nM; AUC ([3]; plasma 0.5-6 h post-dosing): 0.037 µM·h
14 | – | – | – | COc1ccc2c(c1F)C(=O)N(C[C@@]1(c3cc4nc(N5CCC(N(C)C)CC5)ccc4o3)NC(=O)NC1=O)C2 [Compound 1298] | IC50 [2, 5]: 79 nM; AUC ([3]; plasma 0.5-6 h post-dosing): 0.037 µM·h
15 | 0.77 | 239 | 1.87 | CCC1(c2cc(F)c3oc([C@]4(CN5Cc6ccc(OC)c(F)c6C5=O)NC(=O)NC4=O)cc3c2)NC(=O)NC1=O (stereo partly drawn) [Compound 1305] | –
16 | 0.81 | 204 | 2.01 | CCC1(c2ccc3oc([C@]4(CN5Cc6ccc(OC)c(F)c6C5=O)NC(=O)NC4=O)cc3c2)NC(=O)NC1=O (stereo partly drawn) [Compound 1307] | –
17 | – | – | 0.614 | COc1ccc2c(c1F)C(=O)N(C[C@@]1(c3cc4cc5c(c(-c6cccnc6)c4o3)C(=O)NC5)NC(=O)NC1=O)C2 [Compound 1310] | –
18 | 1.18 | 297 | 14.6 | COc1ccc2c(c1F)C(=O)N(C[C@@]1(c3cc4ncc(F)cc4o3)NC(=O)NC1=O)C2 [Compound 1311] | –
19 | 0.74 | 911 | 38.3 | COc1ccc2c(c1F)C(=O)N(C[C@@]1(c3cc4nc(C)c(F)cc4o3)NC(=O)NC1=O)C2 [Compound 1312] | –
20 | 1.02 | 104 | 45.7 | COc1ccc2c(c1F)C(=O)N(C[C@@]1(c3cc4cc(C5(C)NC(=O)NC5=O)c(F)cc4o3)NC(=O)NC1=O)C2 (stereo partly drawn) [Compound 1316] | –
21 | – | 175 | 10.4 | CCCN1CCN(c2ccc3oc([C@]4(CN5Cc6ccc(OC)c(F)c6C5=O)NC(=O)NC4=O)cc3n2)CC1 [Compound 1708] | –
22 | – | – | – | COc1ccc2c(c1)C(=O)N(C[C@@]1(c3cc4nc(-c5ccnn5C)ccc4o3)NC(=O)NC1=O)C2 [Compound 2116] | IC50 [2, 5]: 1200 nM; AUC ([3]; plasma 0.5-6 h post-dosing): 5.19 µM·h
23 | – | – | – | COc1ccc2c(c1)C(=O)N(C[C@@]1(c3cc4nc(N5CC(C)NC(C)C5)ccc4o3)NC(=O)NC1=O)C2 (stereo partly drawn) [Compound 2120] | IC50 [2, 5]: 1200 nM; AUC ([3]; plasma 0.5-6 h post-dosing): 5.19 µM·h
24 | – | – | – | COc1ccc2c(c1)C(=O)N(C[C@@]1(c3cc4nc(-c5ccc(N6CCOCC6)nc5)ccc4o3)NC(=O)NC1=O)C2 [Compound 2151] | IC50 [2, 5]: 800 nM; AUC ([3]; plasma 0.5-6 h post-dosing): 0.692 µM·h
25 | – | – | – | CCOC(=O)N1CCc2oc([C@]3(CN4Cc5ccc(OC)cc5C4=O)NC(=O)NC3=O)cc2C1 [Compound 2437] | IC50 [2, 6]: 654 nM; RR AUC (rapid rat AUC, rrAUC) [3]: 4.026 µM·h
26 | – | – | – | COc1ccc2c(c1)C(=O)N(C[C@@]1(c3cc4c(C#N)nccc4o3)NC(=O)NC1=O)C2 [Compound 2445] | IC50 [2, 6]: 1240 nM; RR AUC (rapid rat AUC, rrAUC) [3]: 0.485 µM·h
27 | – | – | – | COc1ccc2c(c1)C(=O)N(C[C@@]1(c3cc4nc(C(N)=O)ccc4o3)NC(=O)NC1=O)C2 [Compound 2457] | IC50 [2, 6]: 200 nM; RR AUC (rapid rat AUC, rrAUC) [3]: 0.113 µM·h
28 | 1.43 | – | – | COc1ccc2c(c1)C(=O)N(C[C@@]1(c3cc4cc5c(cc4o3)[C@@H](NC(=O)OC(C)(C)C)CC5)NC(=O)NC1=O)C2 [Compound 2507] | IC50 [2, 6]: 4160 nM
29 | 0.52 | – | – | COc1ccc2c(c1)C(=O)N(C[C@@]1(c3cc4cc5c(cc4o3)[C@@H](N)CC5)NC(=O)NC1=O)C2 [Compound 2508] | IC50 [2, 6]: 1020 nM

Row | SMILES | Ki ([1]; read-out: Ki) [nM] | IC50 [2, 4] [nM] | AUC ([3]; plasma 0.5-6 h) [µM·h] | further results
30 | COc1ccc2c(c1F)C(=O)N(C[C@@]1(c3cc4cnc(C)cc4o3)NC(=O)NC1=O)C2 [Compound 30] | 0.38 | – | – | IC50 [2, 5]: 205 nM; AUC ([3]; plasma 0.5-6 h post-dosing): 26.3 µM·h
31 | CCOC(=O)N1CCc2oc([C@]3(CN4Cc5ccc(OC)cc5C4=O)NC(=O)NC3=O)cc2C1 [Compound 315] | – | 654 | 4.03 | Ki ([1]; Ki): 0.93 nM
32 | COc1ccc2c(c1)C(=O)N(C[C@@]1(c3cc4c(C#N)nccc4o3)NC(=O)NC1=O)C2 [Compound 323] | – | 1240 | 0.485 | Ki ([1]; Ki): 0.7 nM
33 | COc1ccc2c(c1)C(=O)N(C[C@@]1(c3cn4ccsc4n3)NC(=O)NC1=O)C2 [Compound 502C] | – | 538 | 2.22 | Ki ([1]; Ki): 1.26 nM
34 | COc1ccc2c(c1)C(=O)N(C[C@@]1(c3cn4cccnc4n3)NC(=O)NC1=O)C2 [Compound 750] | – | 705 | 0.32 | Ki ([1]; Ki): 1.91 nM
35 | COc1ccc2c(c1F)C(=O)N(C[C@@]1(c3cc4nc(N5CC(=O)NC5=O)c(F)cc4o3)NC(=O)NC1=O)C2 [Compound 1330] | – | – | 3.19 | Ki ([1]; Ki): 0.39 nM
36 | COc1ccc2c(c1F)C(=O)N(C[C@@]1(c3cc4nc(N5CCNC(=O)C5)ccc4o3)NC(=O)NC1=O)C2 [Compound 1700] | – | – | 0.105 | Ki ([1]; Ki): 0.6 nM
37 | COc1ccc2c(c1)C(=O)N(C[C@@]1(c3cc4nc(N(c5cn[nH]c5)C5CCN(C)CC5)ccc4o3)NC(=O)NC1=O)C2 [Compound 1703] | – | – | 0.064 | Ki ([1]; Ki): 1 nM
